Structures can show the parent of a compound that is named as a salt. Activity calls are given as the source filed them. The calls are words filed in the database; no cut-off is given here.
Experiments:
Influenza B virus = format: functional, organism-based; settings: B/Hong Kong/05/1972, MDCK
Glutamate NMDA receptor [1] = test: Inhibition of NMDA receptor in rat cerebellar granule neurons assessed as NMDA-induced intracellular calcium increase; format: cell-based
H2N2 subtype = format: functional, organism-based, Influenza A virus (A/Japan/305/1957(H2N2)); settings: Influenza A virus, MDCK
Glutamate NMDA receptor [2] = test: Inhibition of NMDA receptor in rat cerebellar granule neurons assessed as glutamate-induced intracellular calcium increase; format: cell-based
[3] = Cytotoxicity against MDCK cells assessed as detectable alteration of normal cell morphology; format: cell-based, Canis lupus familiaris; settings: dog, read-out: Activity
[4] = Binding affinity to influenza A virus A/chicken/Germany/27 H7N7 weybridge strain M2 ion channel expressed in Escherichia coli

Compound | Activity (Influenza B virus) | IC50 (Glutamate NMDA receptor [1]) [µM] | EC50 (H2N2 subtype) [µM] | IC50 (Glutamate NMDA receptor [2]) [µM] | MCC [3] [mM] | Kd [4] [µM] | EC50 (Influenza B virus) [µM]
CCCC1(O)C2CC3CC(C2)CC1C3 (centres undefined) | inactive | > 350 | < 2.1 | > 350 | > 1.29 | – | –
CCCC1(N)C2CC3CC(C2)CC1C3 (centres undefined) | inactive | 61.3 | < 1.7 | 258 | > 1.09 | 8.71 | –
CC1(N)C2CC3CC(C2)CC1C3 (centres undefined) | inactive | 64.4 | 3.5 | 306 | > 1.24 | 3.6 | –
NC1C2CC3CC(C2)CC1C3 (centres undefined) | inactive | 219 | 2.8 | > 350 | > 1.33 | 2.36 | –
NC12CC3CC(CC(C3)C1)C2 [AMANTADINE HYDROCHLORIDE] | inactive | – | 1.1 | – | > 1.33 | 0.32 | –
CC1(F)C2CC3CC(C2)CC1C3 (centres undefined) | – | – | – | – | – | > 26 | –
C1CCC2(NC1)C1CC3CC(C1)CC2C3 (centres undefined) | – | 19 | 1 | 239 | > 1.03 | 0.39 | 241
CC1(O)C2CC3CC(C2)CC1C3 (centres undefined) | inactive | > 350 | 3 | > 350 | > 1.51 | – | –
CCC1(N)C2CC3CC(C2)CC1C3 (centres undefined) | inactive | – | < 1.9 | – | > 1.16 | 6.7 | –
C1CNC2(C1)C1CC3CC(C1)CC2C3 (centres undefined) | inactive | 50.6 | 1.8 | 314 | > 1.1 | 1.16 | –
